Patent US12459974B2, “Bicyclic peptide ligands specific for Nectin-4” (priority 2018, dated 2025)
Values joined by “and” are separate entries in the source; they are usually repeats but may differ in a detail not shown here. Equal entries are not always repeated. *1 amine or outer side, *2 acyl side, *3 side chain or, on linkers, in order; H or OH if unused. Where a SMILES comes first, the peptide text is derived from it. Bridges are numbered along the chain shown (N, C = ends). Roman numbers before positions name the chains, in order. [ ]: non-standard residue; d: D form. The star is where a group is joined. ξ: configuration not given here. TATA = O=C(CC[*:1])N1CN(C(=O)CC[*:2])CN(C(=O)CC[*:3])C1; Dolaproine = CO[C@@H]([C@@H]1CCCN1)[C@@H](C)C(=O)O; X1 = CC[C@H](C)C(C(CC(=O)[*:2])OC)N(C)[*:1]; 1Nal = N[C@@H](Cc1cccc2ccccc12)C(=O)O; X3 = O=C(CCCC(=O)[*:2])NCCC(=O)[*:1]; PABC = O=C(OCc1ccc(N[*:1])cc1)[*:2]; Hyp = O=C(O)[C@@H]1C[C@@H](O)CN1; hArg = N=C(N)NCCCC[C@H](N)C(=O)O; Cit = NC(=O)NCCC[C@H](N)C(=O)O; X2 = CC(N*)[C@@H](O)c1ccccc1; ξNMeV = CNC(C(=O)O)C(C)C; ξV = CC(C)C(N)C(=O)O; Sar = CNCC(=O)O

Tests used:
[1] = tested on: NCI-H292 xenograft; experiment: Example 1: in vivo efficacy in NCI-H292 xenograft (NSCLC model) in BALB/c nude mice; set-up: species or system Mus Musculus
Description: The major endpoint was to see if the tumor growth could be delayed or mice could be cured. Tumor volume was measured three times weekly in two dimensions using a caliper, and the volume was expressed in mm^3 using the formula: V=0.5 a×b^2 where a and b are the long and short diameters of the tumor, respectively. The tumor size was then used for calculations of T/C value. The T/C value (in percent) is an indication of antitumor effectiveness; T and C are the mean volumes of the treated and control groups, respectively, on a given day. TGI was calculated for each group using the formula: TGI (%)=[1−(Ti−T0)/(Vi−V0)]×100; Ti is the average tumor volume of a treatment group on a given day, T0 is the average tumor volume of the treatment group on the day of treatment start, Vi is the average tumor volume of the vehicle control group on the same day with Ti, and V0 is the average tumor volume of the vehicle group on the day of treatment start.
A one-way ANOVA was performed to compare tumor volume among groups, and when a significant F-statistics (a ratio of treatment variance to the error variance) was obtained, comparisons between groups were carried out with Games-Howell test. All data were analyzed using GraphPad Prism 5.0. P<0.05 was considered to be statistically significant.
The NCI-H292 tumor cells will be maintained in medium supplemented with 10% heat inactivated fetal bovine serum at 37° C. in an atmosphere of 5% CO2 in air. The tumor cells will be routinely subcultured twice weekly. The cells growing in an exponential growth phase will be harvested and counted for tumor inoculation.
Each mouse will be inoculated subcutaneously at the right flank with NCI-H292 tumor cells (10×10^6) in 0.2 ml of PBS for tumor development. The animals will be randomized and treatment will be started when the average tumor volume reaches approximately 158-406 mm^3.

[2] = tested on: Panc2.13 xenograft; experiment: Example 3: in vivo efficacy in Panc2.13 xenograft (pancreatic cancer model) in Balb/c nude mice; set-up: species or system Mus Musculus
[3] = 3 mpk biw iv, day 14 (Table 13)

With `CC[C@H](C)C(C(CC(=O)N1CCC[C@H]1[C@H](OC)[C@@H](C)C(=O)NC(C)[C@@H](O)c1ccccc1)OC)N(C)C(=O)[C@@H](NC(=O)C(C(C)C)N(C)C(=O)OCc1ccc(NC(=O)[C@H](CCCNC(N)=O)NC(=O)C(NC(=O)CCCC(=O)NCCC(=O)N(C)CC(=O)N(C)CC(=O)N(C)CC(=O)N(C)CC(=O)N(C)CC(=O)N(C)CC(=O)N(C)CC(=O)N(C)CC(=O)N(C)CC(=O)N(C)CC(=O)N[C@H]2CSCCC(=O)N3CN4CN(C3)C(=O)CCSC[C@H](NC(=O)[C@@H](CC(=O)O)NC(=O)[C@H](Cc3cccc5ccccc35)NC(=O)[C@@H]3CCCN3C2=O)C(=O)N[C@@H](CCSC)C(=O)N[C@@H](CCCCNC(=N)N)C(=O)N[C@@H](CC(=O)O)C(=O)N[C@@H](Cc2c[nH]c3ccccc23)C(=O)N[C@@H](CO)C(=O)N[C@@H]([C@@H](C)O)C(=O)N2CCC[C@H]2C(=O)N2C[C@H](O)C[C@H]2C(=O)N[C@@H](Cc2c[nH]c3ccccc23)C(=O)N[C@H](C(N)=O)CSCCC4=O)C(C)C)cc1)C(C)C` (stereo partly drawn) [BCY8245, MMAE-PABC-Cit-Val-Glutaryl-BCY8234] (I: [Sar][Sar][Sar][Sar][Sar][Sar][Sar][Sar][Sar][Sar]CP[1Nal][dD]CM[hArg]DWSTP[Hyp]WC-NH2 / II: [ξV][Cit][PABC][ξNMeV]V[X1][Dolaproine]-X2; linker I:11-I:15-I:25 via TATA; linker I:N-II:N via X3) the “antitumor activity (in words)” value ([1]; 1 mg/kg qw) was “didn't produce significant antitumor activity”, the Tumor volume ([1]; 1/3/5 mpk qw iv, day 0) was 404 ± 65 mm^3 and the Tumor volume ([1]; 1/3/5 mpk qw iv, day 2) was 391 ± 42 mm^3. It also gave a Tumor volume ([1]; 1/3/5 mpk qw iv, day 4) of 542 ± 14 mm^3, a Tumor volume ([1]; 1/3/5 mpk qw iv, day 7) of 721 ± 136 mm^3 and a Tumor volume ([1]; 1/3/5 mpk qw iv, day 9) of 762 ± 115 mm^3. It also gave a Tumor volume ([1]; 1/3/5 mpk qw iv, day 11) of 607 ± 95 mm^3, a Tumor volume ([1]; 1/3/5 mpk qw iv, day 14) of 614 ± 89 mm^3 and a Tumor volume ([1]; 1/3/5 mpk qw iv, day 16) of 626 ± 93 mm^3. It also gave a Tumor volume ([1]; 1/3/5 mpk qw iv, day 18) of 611 ± 93 mm^3, a T/C ([1]; 1/3/5 mpk qw iv, day 21) of 30.4% and a TGI ([1]; 1/3/5 mpk qw iv, day 21) of 85.7%. It also gave a Tumor volume ([1]; 1/3/5 mpk qw iv, day 21) of 654 ± 152 mm^3, a Tumor volume ([1]; 1/3/5 mpk qw iv, day 23) of 732 ± 139 mm^3 and a Tumor volume ([1]; 1/3/5 mpk qw iv, day 25) of 755 ± 132 mm^3. For the same molecule, the Tumor volume ([1]; 1/3/5 mpk qw iv, day 28) was 713 ± 114 mm^3, the Tumor volume ([1]; 1/3/5 mpk qw iv, day 30) was 762 ± 165 mm^3 and the Tumor volume ([1]; 1/3/5 mpk qw iv, day 32) was 968 ± 290 mm^3. It also gave a Tumor volume ([1]; 1/3/5 mpk qw iv, day 35) of 1119 ± 216 mm^3, a Tumor volume ([1]; 3 mpk biw iv, day 0 (Table 9)) of 162 ± 13 mm^3 and a Tumor volume ([1]; 3 mpk biw iv, day 2 (Table 9)) of 243 ± 19 mm^3. It also gave a Tumor volume ([1]; 3 mpk biw iv, day 4 (Table 9)) of 211 ± 12 mm^3, a Tumor volume ([1]; 3 mpk biw iv, day 7 (Table 9)) of 101 ± 11 mm^3 and a Tumor volume ([1]; 3 mpk biw iv, day 9 (Table 9)) of 100 ± 8 mm^3. The Tumor volume ([1]; 3 mpk biw iv, day 11 (Table 9)) was 87 ± 7 mm^3, the Tumor volume ([1]; 3 mpk biw iv, day 14 (Table 9)) was 65 mm^3 and 65 ± 3 mm^3 and the T/C [1, 3] was 6.9%. For the same molecule, the TGI [1, 3] was 112.2%, the Tumor volume ([1]; 3 mpk qw iv, day 0 (Table 9)) was 160 ± 5 mm^3 and the Tumor volume ([1]; 3 mpk qw iv, day 2 (Table 9)) was 220 ± 11 mm^3. It also gave a Tumor volume ([1]; 3 mpk qw iv, day 4 (Table 9)) of 266 ± 15 mm^3, a Tumor volume ([1]; 3 mpk qw iv, day 7 (Table 9)) of 218 ± 23 mm^3 and a Tumor volume ([1]; 3 mpk qw iv, day 9 (Table 9)) of 167 ± 10 mm^3. For the same molecule, the Tumor volume ([1]; 3 mpk qw iv, day 11 (Table 9)) was 161 ± 36 mm^3, the Tumor volume ([1]; 3 mpk qw iv, day 14 (Table 9)) was 149 mm^3 and 149 ± 43 mm^3 and the T/C ([1]; 3 mpk qw iv, day 14 (Table 13)) was 15.8%. For the same molecule, the TGI ([1]; 3 mpk qw iv, day 14 (Table 13)) was 101.4%, the Tumor volume ([1]; 5 mpk qw iv, day 0 (Table 9)) was 160 ± 9 mm^3 and the Tumor volume ([1]; 5 mpk qw iv, day 2 (Table 9)) was 176 ± 7 mm^3. The Tumor volume ([1]; 5 mpk qw iv, day 4 (Table 9)) was 191 ± 3 mm^3, the Tumor volume ([1]; 5 mpk qw iv, day 7 (Table 9)) was 105 ± 8 mm^3 and the Tumor volume ([1]; 5 mpk qw iv, day 9 (Table 9)) was 82 ± 3 mm^3. For the same molecule, the Tumor volume ([1]; 5 mpk qw iv, day 11 (Table 9)) was 91 ± 14 mm^3, the Tumor volume ([1]; 5 mpk qw iv, day 14 (Table 9)) was 83 mm^3 and 83 ± 8 mm^3 and the T/C ([1]; 5 mpk qw iv, day 14 (Table 13)) was 8.8%. For the same molecule, the TGI ([1]; 5 mpk qw iv, day 14 (Table 13)) was 109.8%, the “antitumor activity (in words)” value ([1]; after increasing the dosage to 3 mg/kg from day 7) was “obvious antitumor activity” and the “efficacy (in words)” value ([1]; after increasing the dosage to 5 mg/kg on day 21) was “not further improved”. For the same molecule, the “anti-tumour activity (in words)” value ([1]; mouse, in vivo) was “good anti-tumour activity”, the TGI ([2]; 3 mg/kg biw, day 14) was 79.1% and the “Tumor volume (TV)” value ([2]; 3 mg/kg biw, day 14) was 231 mm^3. For the same molecule, the TGI ([2]; 3 mg/kg qw, day 14) was 69.2%, the “Tumor volume (TV)” value ([2]; 3 mg/kg qw, day 14) was 271 mm^3 and the TGI ([2]; 5 mg/kg qw, day 14) was 77.5%. For the same molecule, the “Tumor volume (TV)” value ([2]; 5 mg/kg qw, day 14) was 238 mm^3, the Tumor volume ([2]; 3 mpk, biw, iv, day 0 after start of treatment) was 148 ± 46 mm^3 and the Tumor volume ([2]; 3 mpk, biw, iv, day 2) was 170 ± 38 mm^3. For the same molecule, the Tumor volume ([2]; 3 mpk, biw, iv, day 4) was 204 ± 57 mm^3, the Tumor volume ([2]; 3 mpk, biw, iv, day 7) was 216 ± 56 mm^3 and the Tumor volume ([2]; 3 mpk, biw, iv, day 9) was 236 ± 59 mm^3. It also gave a Tumor volume ([2]; 3 mpk, biw, iv, day 11) of 241 ± 60 mm^3, a Tumor volume ([2]; 3 mpk, biw, iv, day 14) of 231 ± 57 mm^3 and a T/C ([2]; 3 mpk, biw, day 14) of 42.3%. The TGI ([2]; 3 mpk, biw, day 14) was 79.1%, the “Tumor volume” value ([2]; 3 mpk, biw, day 14, Mean ± SEM (Table 19)) was 231 ± 57 mm^3 and the Tumor volume ([2]; 3 mpk, qw, iv, day 0 after start of treatment) was 149 ± 34 mm^3.
